Laboratory results from US10357493B2, “Metalloenzyme inhibitor compounds” (Selenity Therapeutics (Bermuda), Ltd., priority 2017, dated 2019).

Experiments:
[1] = biological target: HDAC6 (Homo sapiens (Human), UniProt Q9UBN7); assay: HDAC6 enzymatic assay; type: biochemical; conditions: read-out: Human HDAC6 IC50
In short: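 Following a 17 hour room-temperature incubation of 2 ng HDAC6 with 10 uM substrate and compound, 50 μl developer was added for another 20 minutes, and fluorescence (excitation 360 nm, emission 460 nm) was recorded. Activity was normalized to no-compound (100%) and no-enzyme (0%) wells, and IC50 came from sigmoidal dose-response fitting in Graphpad Prism.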

[2] = biological target: HDAC1 (Homo sapiens (Human), UniProt Q13547); assay: HDAC1 enzymatic assay; type: biochemical; conditions: read-out: Human HDAC1 IC50
In short: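 Compound inhibition of human HDAC1 (0.5 ng enzyme, 10 uM substrate) was assessed by fluorescence after developer treatment, excitation 360 nm and emission 460 nm. Percent activity was normalized to no-compound (100%) and no-enzyme (0%) controls, plotted against concentration, and fitted to a sigmoidal dose-response curve in Graphpad Prism to obtain IC50 at half-maximal activity.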

HDAC6, sequence (Q9UBN7 whole entry): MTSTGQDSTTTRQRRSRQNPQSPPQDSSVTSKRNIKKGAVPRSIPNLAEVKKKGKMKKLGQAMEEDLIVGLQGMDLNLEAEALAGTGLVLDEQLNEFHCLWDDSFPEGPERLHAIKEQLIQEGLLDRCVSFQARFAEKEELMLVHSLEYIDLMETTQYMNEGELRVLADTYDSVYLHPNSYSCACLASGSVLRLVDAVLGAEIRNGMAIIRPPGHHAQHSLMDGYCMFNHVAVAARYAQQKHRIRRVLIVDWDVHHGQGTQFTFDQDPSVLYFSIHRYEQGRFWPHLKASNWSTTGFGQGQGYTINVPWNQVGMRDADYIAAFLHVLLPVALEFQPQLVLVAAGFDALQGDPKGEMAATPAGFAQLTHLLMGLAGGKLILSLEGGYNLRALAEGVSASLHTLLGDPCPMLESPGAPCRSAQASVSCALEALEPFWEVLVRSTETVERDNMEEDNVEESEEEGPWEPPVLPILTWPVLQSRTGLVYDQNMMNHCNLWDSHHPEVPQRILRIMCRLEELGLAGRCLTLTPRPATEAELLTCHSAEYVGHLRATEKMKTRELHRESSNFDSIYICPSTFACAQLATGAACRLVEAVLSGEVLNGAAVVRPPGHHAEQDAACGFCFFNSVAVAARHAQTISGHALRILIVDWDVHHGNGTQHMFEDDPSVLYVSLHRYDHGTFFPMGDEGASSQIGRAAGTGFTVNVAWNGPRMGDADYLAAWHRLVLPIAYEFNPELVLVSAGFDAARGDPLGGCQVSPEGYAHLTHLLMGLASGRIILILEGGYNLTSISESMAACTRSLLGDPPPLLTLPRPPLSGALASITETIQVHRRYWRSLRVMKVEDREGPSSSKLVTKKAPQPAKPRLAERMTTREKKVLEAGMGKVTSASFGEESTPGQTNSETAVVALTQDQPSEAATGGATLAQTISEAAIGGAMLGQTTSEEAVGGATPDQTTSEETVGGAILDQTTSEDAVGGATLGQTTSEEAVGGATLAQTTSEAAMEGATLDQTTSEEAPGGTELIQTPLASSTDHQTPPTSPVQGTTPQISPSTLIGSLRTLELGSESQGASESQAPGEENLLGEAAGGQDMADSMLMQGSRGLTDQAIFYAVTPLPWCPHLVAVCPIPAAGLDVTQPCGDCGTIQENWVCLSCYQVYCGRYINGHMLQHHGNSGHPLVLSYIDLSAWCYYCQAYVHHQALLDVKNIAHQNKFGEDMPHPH
HDAC1, sequence (Q13547 whole entry): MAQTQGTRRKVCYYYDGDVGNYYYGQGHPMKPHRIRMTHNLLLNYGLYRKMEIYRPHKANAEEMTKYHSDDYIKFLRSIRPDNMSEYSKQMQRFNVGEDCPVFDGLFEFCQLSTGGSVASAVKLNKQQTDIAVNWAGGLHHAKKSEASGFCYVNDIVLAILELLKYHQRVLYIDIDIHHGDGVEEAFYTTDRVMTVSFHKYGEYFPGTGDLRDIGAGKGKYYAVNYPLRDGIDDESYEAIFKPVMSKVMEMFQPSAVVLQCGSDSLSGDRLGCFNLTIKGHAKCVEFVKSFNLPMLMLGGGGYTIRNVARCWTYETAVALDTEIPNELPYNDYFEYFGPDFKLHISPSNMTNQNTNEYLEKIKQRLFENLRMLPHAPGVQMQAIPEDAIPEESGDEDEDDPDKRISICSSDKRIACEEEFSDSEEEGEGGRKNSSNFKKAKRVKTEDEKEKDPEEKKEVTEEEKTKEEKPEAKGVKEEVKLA

IC50 [1] [nM]	IC50 [2] [nM]	SMILES
220	> 30000	COc1ccccc1C1(Nc2ncc(-c3nnc(C(F)(F)F)o3)cn2)CC1 [Example 40, N-(1-(2-methoxyphenyl)cyclopropyl)-5-(5-(trifluoromethyl)-1,3,4-oxadiazol-2-yl)pyrimidin-2-amine]
1100	> 30000	CS(=O)(=O)NCC(Nc1ncc(-c2nnc(C(F)F)o2)cn1)C1CC1 (single isomer, unassigned) [123(−), N-(2-cyclopropyl-2-((5-(5-(difluoromethyl)-1,3,4-oxadiazol-2-yl)pyrimidin-2-yl)amino)ethyl)methanesulfonamide]
390	> 30000	FC(F)c1nnc(-c2cnc(NC3(c4cccnc4)CC3)nc2)o1 [Example 65, 5-(5-(difluoromethyl)-1,3,4-oxadiazol-2-yl)-N-(1-(pyridin-3-yl)cyclopropyl)pyrimidin-2-amine]
47	> 30000	Fc1ccc(C(COc2ccccc2)Nc2ncc(-c3nnc(C(F)F)o3)cn2)cc1 (centres unmarked) [Example 19, 5-(5-(difluoromethyl)-1,3,4-oxadiazol-2-yl)-N-(1-(4-fluorophenyl)-2-phenoxyethyl)pyrimidin-2-amine]
1100	> 30000	CS(=O)(=O)NCC(Nc1ncc(-c2nnc(C(F)F)o2)cn1)C1CC1 (single isomer, unassigned) [123(+), N-(2-cyclopropyl-2-((5-(5-(difluoromethyl)-1,3,4-oxadiazol-2-yl)pyrimidin-2-yl)amino)ethyl)methanesulfonamide]
92	> 30000	Fc1cccc(F)c1C(CC(F)(F)F)Nc1ncc(-c2nnc(C(F)F)o2)cn1 (centres unmarked) [Example 102, 5-(5-(difluoromethyl)-1,3,4-oxadiazol-2-yl)-N-(1-(2,6-difluorophenyl)-3,3,3-trifluoropropyl)pyrimidin-2-amine]
62	> 30000	FC(F)c1nnc(-c2cnc(NC3(c4cccc(C(F)(F)F)c4Cl)CC3)nc2)o1 [Example 85, N-(1-(2-chloro-3-(trifluoromethyl)phenyl)cyclopropyl)-5-(5-(difluoromethyl)-1,3,4-oxadiazol-2-yl)pyrimidin-2-amine]
51	> 30000	O=S(=O)(NCC(Nc1ncc(-c2nnc(C(F)F)o2)cn1)c1ccc(OC(F)(F)F)cc1)C1CC1 (stereo not drawn) [158(+), N-(2-((5-(5-(difluoromethyl)-1,3,4-oxadiazol-2-yl)pyrimidin-2-yl)amino)-2-(4-(trifluoromethoxy)phenyl)ethyl)cyclopropanesulfonamide]
71	> 30000	CCC(Nc1ncc(-c2nnc(C(F)F)o2)cn1)c1ccc(F)cc1 (centres unmarked) [Example 22, 5-(5-(difluoromethyl)-1,3,4-oxadiazol-2-yl)-N-(1-(4-fluorophenyl)propyl)pyrimidin-2-amine]
58	> 30000	NCC(Nc1ncc(-c2nnc(C(F)F)o2)cn1)c1ccc(F)cc1 (centres unmarked) [Example 96, N1-(5-(5-(difluoromethyl)-1,3,4-oxadiazol-2-yl)pyrimidin-2-yl)-1-(4-fluorophenyl)ethane-1,2-diamine]
19	> 30000	Fc1cc(F)c(C2(Nc3ncc(-c4nnc(C(F)F)o4)cn3)CC2)c(F)c1 [Example 74, 5-(5-(difluoromethyl)-1,3,4-oxadiazol-2-yl)-N-(1-(2,4,6-trifluorophenyl)cyclopropyl) pyrimidin-2-amine]
18	> 30000	CCS(=O)(=O)NCC(Nc1ncc(-c2nnc(C(F)F)o2)cn1)c1ccc(OC(F)F)cc1F (stereo not drawn) [147(+), N-(2-(4-(difluoromethoxy)-2-fluorophenyl)-2-((5-(5-(difluoromethyl)-1,3,4-oxadiazol-2-yl)pyrimidin-2-yl)amino)ethyl)ethanesulfonamide]
29	> 30000	CS(=O)(=O)NCC(Nc1ncc(-c2nnc(C(F)F)o2)cn1)c1ccc(F)cc1 (centres unmarked) [Example 38, N-(2-((5-(5-(difluoromethyl)-1,3,4-oxadiazol-2-yl)pyrimidin-2-yl)amino)-2-(4-fluorophenyl)ethyl)methanesulfonamide]
